# Activity calls are given as the source filed them. The calls are words filed in the database; no cut-off is given here.
# Tests used:
# [1] = Cytotoxicity against human MHCC97L cells assessed as growth inhibition after 24 hrs by MTT assay; format: functional, cell-based
# PLC-PRF-5 [2] = test: Cytotoxicity against human PLC/PRF/5 cells assessed as growth inhibition after 24 hrs by MTT assay; format: functional, cell-based; conditions: PLC-PRF-5, 24 h
# [3] = Potency index, ratio of sorafenib IC50 to test compound IC50 for human MHCC97L cells; format: functional
# PLC-PRF-5 [4] = test: Potency index, ratio of sorafenib IC50 to test compound IC50 for human PLC/PRF/5 cells; format: functional
# [5] = Potency index, ratio of tetrandrine IC50 to test compound IC50 for human MHCC97L cells; format: functional
# PLC-PRF-5 [6] = test: Potency index, ratio of tetrandrine IC50 to test compound IC50 for human PLC/PRF/5 cells; format: functional
# PLC-PRF-5 [7] = test: Cell cycle arrest in human PLC/PRF/5 cells assessed as accumulation at G0/G1 phase at 1.25 to 2.5 uM after 24 hrs by propidium iodide staining-based flow cytometric method (reference value: 69.17%); format: functional
# PLC-PRF-5 [8] = test: Cell cycle arrest in human PLC/PRF/5 cells assessed as accumulation at S phase at 1.25 to 2.5 uM after 24 hrs by propidium iodide staining-based flow cytometric method (reference value: 20.73%); format: functional
# PLC-PRF-5 [9] = test: Cell cycle arrest in human PLC/PRF/5 cells assessed as accumulation at G2/M phase at 1.25 to 2.5 uM after 24 hrs by propidium iodide staining-based flow cytometric method (reference value: 18.18%); format: functional
# [10] = Cell cycle arrest in human MHCC97L cells assessed as accumulation at G0/G1 phase at 1.25 to 2.5 uM after 24 hrs by propidium iodide staining-based flow cytometric method (reference value: 65.24%); format: functional
# [11] = Cell cycle arrest in human MHCC97L cells assessed as accumulation at S phase at 1.25 to 2.5 uM after 24 hrs by propidium iodide staining-based flow cytometric method (reference value: 18.41%); format: functional
# [12] = Cell cycle arrest in human MHCC97L cells assessed as accumulation at G2/M phase at 1.25 to 2.5 uM after 24 hrs by propidium iodide staining-based flow cytometric method (reference value: 20.60%); format: functional
# PLC-PRF-5 [13] = test: Induction of apoptosis in human PLC/PRF/5 cells assessed as early apoptotic cells at 1.25 to 2.5 uM after 24 hrs by annexin V/7-AAD staining-based flow cytometric method (reference value: 0.467%); format: functional
# PLC-PRF-5 [14] = test: Induction of apoptosis in human PLC/PRF/5 cells assessed as late apoptotic cells at 1.25 to 2.5 uM after 24 hrs by annexin V/7-AAD staining-based flow cytometric method (reference value: 2.66%); format: functional
# PLC-PRF-5 [15] = test: Induction of apoptosis in human PLC/PRF/5 cells assessed as necrotic cells at 1.25 to 2.5 uM after 24 hrs by annexin V/7-AAD staining-based flow cytometric method (reference value: 1.87%); format: functional
# PLC-PRF-5 [16] = test: Induction of apoptosis in human PLC/PRF/5 cells assessed as viable cells at 1.25 to 2.5 uM after 24 hrs by annexin V/7-AAD staining-based flow cytometric method (reference value: 95%); format: functional
# [17] = Induction of apoptosis in human MHCC97L cells assessed as early apoptotic cells at 1.25 to 2.5 uM after 24 hrs by annexin V/7-AAD staining-based flow cytometric method (reference value: 0.601%); format: functional
# [18] = Induction of apoptosis in human MHCC97L cells assessed as late apoptotic cells at 1.25 to 2.5 uM after 24 hrs by annexin V/7-AAD staining-based flow cytometric method (reference value: 3.66%); format: functional
# [19] = Induction of apoptosis in human MHCC97L cells assessed as necrotic cells at 1.25 to 2.5 uM after 24 hrs by annexin V/7-AAD staining-based flow cytometric method (reference value: 3.44%); format: functional
# [20] = Induction of apoptosis in human MHCC97L cells assessed as viable cells at 1.25 to 2.5 uM after 24 hrs by annexin V/7-AAD staining-based flow cytometric method (reference value: 93.4%); format: functional
# PLC-PRF-5 [21] = test: Cytotoxicity against human PLC/PRF/5 cells assessed as decrease in cell viability at 1.25 to 2.5 uM after 24 hrs in presence of caspase inhibitor Z-vad-fmk by MTT assay; format: functional, cell-based
# MHCC97L [22] = test: Cytotoxicity against human MHCC97L cells assessed as decrease in cell viability at 1.25 to 2.5 uM after 24 hrs in presence of caspase inhibitor Z-vad-fmk by MTT assay; format: functional, cell-based
# PLC-PRF-5 [23] = test: Cytotoxicity against human PLC/PRF/5 cells assessed as decrease in cell viability at 1.25 to 2.5 uM after 24 hrs in presence of autophagy inhibitor bafilomycin A1 by MTT assay; format: functional, cell-based
# MHCC97L [24] = test: Cytotoxicity against human MHCC97L cells assessed as decrease in cell viability at 1.25 to 2.5 uM after 24 hrs in presence of autophagy inhibitor bafilomycin A1 by MTT assay; format: functional, cell-based
# PLC-PRF-5 [25] = test: Cytotoxicity against human PLC/PRF/5 cells assessed as decrease in cell viability at 1.25 to 2.5 uM after 24 hrs in presence of necrosis inhibitor necrostatin-1 by MTT assay; format: functional, cell-based
# MHCC97L [26] = test: Cytotoxicity against human MHCC97L cells assessed as decrease in cell viability at 1.25 to 2.5 uM after 24 hrs in presence of necrosis inhibitor necrostatin-1 by MTT assay; format: functional, cell-based
# PLC-PRF-5 [27] = test: Induction of endoplasmic reticulum stress in human PLC/PRF/5 cells at 1.25 to 2.5 uM after 24 hrs by ER tracker red staining-based fluorescence microscopic method; format: functional, cell-based
# MHCC97L [28] = test: Induction of endoplasmic reticulum stress in human MHCC97L cells at 1.25 to 2.5 uM after 24 hrs by ER tracker red staining-based fluorescence microscopic method; format: functional, cell-based
# PLC-PRF-5 [29] = test: Induction of endoplasmic reticulum stress in human PLC/PRF/5 cells assessed as upregulation of GRP78 gene expression at 1.25 to 2.5 uM after 24 hrs by qRT-PCR method; format: functional, cell-based
# PLC-PRF-5 [30] = test: Induction of endoplasmic reticulum stress in human PLC/PRF/5 cells assessed as upregulation of ATF4 gene expression at 1.25 to 2.5 uM after 24 hrs by qRT-PCR method; format: functional, cell-based
# MHCC97L [31] = test: Induction of endoplasmic reticulum stress in human MHCC97L cells assessed as upregulation of GRP78 gene expression at 1.25 to 2.5 uM after 24 hrs by qRT-PCR method; format: functional, cell-based
# MHCC97L [32] = test: Induction of endoplasmic reticulum stress in human MHCC97L cells assessed as upregulation of ATF4 gene expression at 1.25 to 2.5 uM after 24 hrs by qRT-PCR method; format: functional, cell-based
# PLC-PRF-5 [33] = test: Cytotoxicity against human PLC/PRF/5 cells assessed as decrease in cell viability at 1.25 to 2.5 uM after 24 hrs in presence of endoplasmic reticulum stress reliever TUDCA by MTT assay; format: functional, cell-based
# MHCC97L [34] = test: Cytotoxicity against human MHCC97L cells assessed as decrease in cell viability at 1.25 to 2.5 uM after 24 hrs in presence of endoplasmic reticulum stress reliever TUDCA by MTT assay; format: functional, cell-based
# [35] = target: T1, c-Jun N-terminal kinase, JNK (Homo sapiens) (UniProt P45983+P53779+P45984); test: Induction of JNK phosphorylation in human PLC/PRF/5 cells at 1.25 to 2.5 uM after 24 hrs by immunoblot method; format: cell-based
# [36] = target: T1, c-Jun N-terminal kinase, JNK (Homo sapiens); test: Induction of JNK phosphorylation in human MHCC97L cells at 1.25 to 2.5 uM after 24 hrs by immunoblot method; format: cell-based
# [37] = target: T1, c-Jun N-terminal kinase, JNK (Homo sapiens); test: Induction of JNK activation in human PLC/PRF/5 cells assessed as increase in caspase 3 cleavage at 1.25 to 2.5 uM after 24 hrs by immunoblot method; format: cell-based
# [38] = target: T1, c-Jun N-terminal kinase, JNK (Homo sapiens); test: Induction of JNK activation in human MHCC97L cells assessed as increase in caspase 3 cleavage at 1.25 to 2.5 uM after 24 hrs by immunoblot method; format: cell-based
# PLC-PRF-5 [39] = test: Cytotoxicity against human PLC/PRF/5 cells assessed as decrease in cell viability at 1.25 to 2.5 uM after 24 hrs in presence of JNK inhibitor SP600125 by MTT assay; format: functional, cell-based
# MHCC97L [40] = test: Cytotoxicity against human MHCC97L cells assessed as decrease in cell viability at 1.25 to 2.5 uM after 24 hrs in presence of JNK inhibitor SP600125 by MTT assay; format: functional, cell-based
smiles,measurement,setting,value
COc1cc(NC(=O)c2ccco2)c2cc1Oc1ccc(cc1)C[C@H]1c3cc(c(OC)cc3CCN1C)Oc1c(OC)c(OC)cc3c1[C@H](C2)N(C)CC3,IC50,[1],890 nM
same,IC50,PLC-PRF-5 [2],1230 nM
same,Ratio IC50,[3],30.3
same,Ratio IC50,PLC-PRF-5 [4],30.3
same,Ratio IC50,[5],15.8
same,Ratio IC50,PLC-PRF-5 [6],15.8
same,Activity,PLC-PRF-5 [7],67.11%
same,Activity,PLC-PRF-5 [8],21.55%
same,Activity,PLC-PRF-5 [9],17.78%
same,Activity,[10],68.52%
same,Activity,[11],21.59%
same,Activity,[12],18.29%
same,Activity,PLC-PRF-5 [13],16.9%
same,Activity,PLC-PRF-5 [14],42.8%
same,Activity,PLC-PRF-5 [15],3.9%
same,Activity,PLC-PRF-5 [16],36.4%
same,Activity,[17],9.76%
same,Activity,[18],39.6%
same,Activity,[19],4.18%
same,Activity,[20],46.4%
same,Activity,PLC-PRF-5 [21],inactive
same,Activity,MHCC97L [22],inactive
same,Activity,PLC-PRF-5 [23],Active
same,Activity,MHCC97L [24],Active
same,Activity,PLC-PRF-5 [25],Active
same,Activity,MHCC97L [26],Active
same,Activity,PLC-PRF-5 [27],Active
same,Activity,MHCC97L [28],Active
same,Activity,PLC-PRF-5 [29],Active
same,Activity,PLC-PRF-5 [30],Active
same,Activity,MHCC97L [31],Active
same,Activity,MHCC97L [32],Active
same,Activity,PLC-PRF-5 [33],inactive
same,Activity,MHCC97L [34],inactive
same,Activity,[35],Active
same,Activity,[36],Active
same,Activity,[37],Active
same,Activity,[38],Active
same,Activity,PLC-PRF-5 [39],inactive
same,Activity,MHCC97L [40],inactive
